According to patent US20240166587A1, “SARS-CoV-2 inhibitors - artificial compounds” (priority 2021, published 2024):
Several values for one entry are separate records, joined by “and”; a condition that tells them apart may be missing. Equal values may be shown once. Read-outs that look alike come from different tables or passages of the source.

Assays:
[1] = system: SARS-CoV-2; format: cell-based; settings: Vero cells; for Experiment 2: repeat of TCID50 assay with a dose of 50 uM / Experiment 2: Fold reduction of TCID50 / Experiment 3: repeat of TCID50 assay with a dose of 50 uM / Experiment 3: Fold reduction of TCID50: substance 50 μM; for Experiment 2: Fold reduction of TCID50: experiment 2, versus DMSO ctrl; for Experiment 3: Fold reduction of TCID50: experiment 3, versus DMSO ctrl
[2] = system: SARS-CoV-2; format: cell-based; settings: Vero E6, 48 hrs
[3] = system: SARS-CoV-2; format: cell-based; settings: Vero cells, different concentrations, 48 hours
[4] = target: T1, RBD to ACE2 receptor binding (Severe acute respiratory syndrome coronavirus 2, UniProt P0DTC2); assay: Molecular interaction assay to detect inhibition of RBD to ACE2 receptor binding; settings: for inhibitory effect on binding to ACE2 receptor: His-tagged RBD, plate bound ACE2
T1 construct: 200 ng His-tagged RBD was incubated
Protocol: The molecular interaction assay to detect inhibition of RBD to ACE2 receptor binding was performed as described (Gattinger et al., Allergy, 76 (2021), 878-883) with following alterations: 200 ng His-tagged RBD was incubated with various doses (100, 50, 25, 12.2, and 6 mM) of substance X for three hours at RT followed by a 3-hours overlay onto plate bound ACE2 (2 μg/ml). Bound RBD was then detected with a mouse monoclonal anti-His antibody followed by an HRP-labelled anti-mouse IgG1 antibody and detected with ABTS detected. All measurements were performed in duplicates with a variation of <5%.

[5] = system: SARS-CoV-2; format: cell-based; settings: for effect on virus proliferation after short term incubation: versus untreated controls

| Compound | Experiment 1: TCID50 assay with 2 doses/substance, 10 μM [1] | Experiment 2: repeat of TCID50 assay with a dose of 50 uM [1] | Experiment 2: Fold reduction of TCID50 [1] [fold] | Experiment 3: repeat of TCID50 assay with a dose of 50 uM [1] | Experiment 3: Fold reduction of TCID50 [1] | Experiment 1: TCID50 assay with 2 doses/substance, 100 μM [1] | inhibition of viral replication ([2]; 100 μM) | inhibition of virus proliferation [3] | inhibitory effect on binding to ACE2 receptor [4] | effect on virus proliferation after short term incubation [5] | inhibition at 100 µM ([4]; 100 μM) [%] | inhibition of viral replication ([2]; 80 μM) | ct values after short term incubation ([5]; 25 μM for one hour) | ct values after short term incubation ([5]; 50 μM for one hour) |
| --- | --- | --- | --- | --- | --- | --- | --- | --- | --- | --- | --- | --- | --- | --- |
| Oc1cc(O)c2c(c1)O[C@H](c1cc(O)c(O)c(O)c1)[C@H](O)C2 [VII, (−)-epigallocatechin] | 2.15 × 10^4 TCID50/mL | 2.89 × 10^5 TCID50/mL | 1.09 | 3.80 × 10^5 TCID50/mL | 7.09 fold | 3.16 × 10^3 TCID50/mL |  |  |  |  |  |  |  |  |
| Oc1ccc(/C=C/c2cc(O)cc(O)c2)cc1 [trihydroxystilbene, trans-3,5,4′-trihydroxystilbene] |  |  |  |  |  |  | low inhibition of viral replication |  |  |  |  |  |  |  |
| (−)-gallocatechin gallate [VIII] | 2.15 × 10^5 TCID50/mL | 3.16 × 10^3 TCID50/mL | 99.7 | 8 × 10^5 TCID50/mL | 5.14 fold | 4.64 × 10^2 TCID50/mL |  | inhibition of virus proliferation | did not show any inhibitory effects | did not have any effects on the virus proliferation |  |  |  |  |
| (−) epigallocatechin gallate [Compound IV] | 3.36 × 10^4 TCID50/mL | 3.16 × 10^3 TCID50/mL | 99.7 | 5.12 × 10^3 TCID50/mL | 802 fold and 802.3 fold | cytotoxic |  | inhibition of virus proliferation | did not show any inhibitory effects | did not have any effects on the virus proliferation |  |  |  |  |
| O=C(O)c1cc(O)c(O)c(O)c1 [Compound I, gallic acid] | 3.16 × 10^5 TCID50/mL | 3.16 × 10^4 TCID50/mL | 9.97 | 4.44 × 10^5 TCID50/mL | 9.27 fold | 3.56 × 10^5 TCID50/mL |  |  |  |  |  |  |  |  |
| Oc1cc(/C=C/c2cc(O)c(O)c(O)c2)cc(O)c1O [Compound X, 3,3′,4,4′,5,5′-hexahydroxy-trans-stilbene] | 5.88 × 10^4 TCID50/mL | 3.16 × 10^3 TCID50/mL | 99.7 | 1.95 × 10^3 TCID50/mL | 2107 fold and 2107.2 fold | 4.64 × 10^2 TCID50/mL | inhibit viral replication completely | inhibition of virus proliferation | could inhibit binding to ACE2 in a concentration dependent manner | could inhibit virus proliferation in a concentration dependent manner | 21 to 31 | inhibit viral replication completely | significantly increased | significantly increased |
